Results as given in US9936701B2, “Herbicidal compounds” (Syngenta Participations AG, priority 2013, dated 2018).

Tests used:
[1] = tested on: a variety of test species; assay: Post-emergence herbicidal activity (glasshouse, sprayed after 8 days cultivation, evaluated after 13 days); type: in vivo; design: key: 5=total damage to plant; 0=no damage to plant; conditions: rate 1000 g/Ha, scale 0-5
Method: (§1) Seeds of a variety of test species were sown in standard soil in pots. After 8 days cultivation (post-emergence) under controlled conditions in a glasshouse (at 24/16° C., day/night; 14 hours light; 65% humidity), the plants were sprayed with an aqueous spray solution derived from the formulation of the technical active ingredient in acetone/water (50:50) solution containing 0.5% Tween 20 (polyoxyethelyene sorbitan monolaurate, CAS RN 9005-64-5). The test plants were then grown in a glasshouse under controlled conditions (at 24/16° C., day/night; 14 hours light; 65% humidity) and watered twice daily. After 13 days, the test was evaluated (5=total damage to plant; 0=no damage to plant).

[2] = tested on: a variety of test species; assay: Pre-emergence herbicidal activity (glasshouse, sprayed one day after sowing, evaluated after 13 days); type: in vivo; design: key: 5=total damage to plant; 0=no damage to plant; conditions: application pre-emergence, rate 1000 g/Ha, scale 0-5
Method: as §1, with “After” for “After 8 days”, “for one day (pre-emergence)” for “(post-emergence)”

SMILES	ABUTH (Abutilon theophrasti) damage score, application post-emergence [1]	ALOMY (Alopecurus myosuroides) damage score, application post-emergence [1]	AMARE (Amaranthus retroflexus) damage score, application post-emergence [1]	ECHCG (Echinochloa crus-galli) damage score, application post-emergence [1]	SETFA (Setaria faberi) damage score, application post-emergence [1]	ZEAMX (Zea mays) damage score, application post-emergence [1]	Pre-emergence herbicidal damage score, ABUTH [2]	Pre-emergence herbicidal damage score, ALOMY [2]	Pre-emergence herbicidal damage score, AMARE [2]	Pre-emergence herbicidal damage score, ECHCG [2]	Pre-emergence herbicidal damage score, SETFA [2]	Pre-emergence herbicidal damage score, ZEAMX [2]
CCOc1cc(N2C(=O)C(Cl)=C(C)C2O)no1 (stereo not shown) [A32]	5	2	2	5	2	2	4	2	1	3	1	1
CCC(C)(CC#N)c1cc(N2C(=O)C(Cl)=C(C)C2O)no1 (stereo not shown) [A59]	5	5	5	5	5	5	5	5	5	5	5	5
CCCC1=C(Cl)C(=O)N(c2noc(C(C)C)c2C#N)C1O (stereo not shown) [A69]	4	2	5	5	5	1	0	0	2	1	1	0
CCCC1=C(Cl)C(=O)N(c2noc(C)c2C#N)C1O (stereo not shown) [A70]	2	3	5	5	5	1	0	1	5	4	3	1
CCCC1=C(Br)C(=O)N(c2noc(C(C)(C)C#N)c2C#N)C1OC(=O)CC (stereo not shown) [A74]	5	5	5	5	5	5	5	4	5	5	5	4
CC(=O)OC1C(C)=C(Cl)C(=O)N1c1cc(C(C)(C)C)on1 (stereo not shown) [A75]	5	5	5	5	5	5	5	4	5	4	4	3
CC1=C(Cl)C(=O)N(c2cc(C(C)(C)C)on2)C1OC(=O)C(C)C (stereo not shown) [A76]	5	5	5	5	5	4	5	4	5	4	4	3
CC1=C(Cl)C(=O)N(c2cc(C(C)(C)C)on2)C1OC(=O)C(C)(C)C (stereo not shown) [A77]	1	2	3	3	2	1	1	1	4	1	2	1
CCSC(=O)OC1C(C)=C(Cl)C(=O)N1c1cc(C(C)(C)C)on1 (stereo not shown) [A78]	5	5	5	5	5	4	5	2	5	5	5	2
COC(=O)OC1C(C)=C(Cl)C(=O)N1c1cc(C(C)(C)C)on1 (stereo not shown) [A81]	5	5	5	5	5	4	5	4	5	5	5	3
CC1=C(Cl)C(=O)N(c2cc(C(C)(C)C)on2)C1OC(=O)SCC(C)C (stereo not shown) [A82]			2	2	2	1	1	0	3	1	1	0
C=COC(=O)OC1C(C)=C(Cl)C(=O)N1c1cc(C(C)(C)C)on1 (stereo not shown) [A83]	5	5	5	5	5	4	5	4	5	5	5	4
CC#CCOC(=O)OC1C(C)=C(Cl)C(=O)N1c1cc(C(C)(C)C)on1 (stereo not shown) [A85]	5	5	5	5	5	4	5	4	5	5	5	3
